Experiments:
[1] = Dissociation constant, pKa in deuterated water solution; format: physicochemical; settings: read-out: Apparent_pKa
C6 = assay: Cytotoxicity in rat C6 cells assessed as intracellular release of lactic dehydrogenase; format: functional
[2] = Dissociation constant, pKa in presence of fetal bovine serum; format: physicochemical; settings: cattle, solution containing fetal bovine serum; read-out: Apparent_pKa

Compound | pKa [1] | Activity (C6) [%] | pKa [2]
OC(Cn1ccnc1)Cn1ccnc1 | 6.45 | – | –
O[C@@H](Cn1ccnc1)[C@@H](O)Cn1ccnc1 | 6.56 | <10 | 6.67
O[C@@H]([C@H](O)[C@H](O)Cn1ccnc1)[C@H](O)Cn1ccnc1 | 7 | <10 | 6.63

From ChEMBL document CHEMBL1148760, “Novel generation of pH indicators for proton magnetic resonance spectroscopic imaging” (J Med Chem, 2007)
